Measurements: PubChem BioAssay AID1963971 (Molecular Pharmacology Branch, DTP, NCI, 2024)

Tested on: 953936-095-R-J2-PDC spheroids with HUVEC/MSC, viability
Experiment: Anticancer human tumor 953936-095-R-J2-PDC patient-derived cervical squamous cell carcinoma cell line growth inhibition [PI3K]
Details: for IC50: curve of first compound; for viability, T/C: stronger effect = lower value
Procedure, shortened: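 Tumor cells grown as multi-cell spheroids with HUVEC endothelial cells and MSC fibroblast-like stroma were treated with targeted agents combined with inavolisib, alpelisib, duvelisib or copanlisib. Doses fell in half-log steps from near clinical Cmax, else from 10 microM. Viability was measured.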

[1] = second compound 0.0316 µM, first compound 0.0316 µM
[2] = second compound 0.0316 µM, first compound 0.1 µM
[3] = second compound 0.0316 µM, first compound 0.316 µM
[4] = second compound 0.0316 µM, first compound 1 µM
[5] = second compound 0.0316 µM, first compound 3.16 µM
[6] = second compound 0.0316 µM, first compound 10 µM
[7] = second compound 0.1 µM, first compound 0.0316 µM
[8] = second compound 0.1 µM, first compound 0.1 µM
[9] = second compound 0.1 µM, first compound 0.316 µM
[10] = second compound 0.1 µM, first compound 1 µM
[11] = second compound 0.1 µM, first compound 3.16 µM
[12] = second compound 0.1 µM, first compound 10 µM
[13] = second compound 0.316 µM, first compound 0.0316 µM
[14] = second compound 0.316 µM, first compound 0.1 µM
[15] = second compound 0.316 µM, first compound 0.316 µM
[16] = second compound 0.316 µM, first compound 1 µM
[17] = second compound 0.316 µM, first compound 3.16 µM
[18] = second compound 0.316 µM, first compound 10 µM
[19] = second compound 1 µM, first compound 0.0316 µM
[20] = second compound 1 µM, first compound 0.1 µM
[21] = second compound 1 µM, first compound 0.316 µM
[22] = second compound 1 µM, first compound 1 µM
[23] = second compound 1 µM, first compound 3.16 µM
[24] = second compound 1 µM, first compound 10 µM
[25] = second compound 3.16 µM, first compound 0.0316 µM
[26] = second compound 3.16 µM, first compound 0.1 µM
[27] = second compound 3.16 µM, first compound 0.316 µM
[28] = second compound 3.16 µM, first compound 1 µM
[29] = second compound 3.16 µM, first compound 3.16 µM
[30] = second compound 3.16 µM, first compound 10 µM
[31] = second compound 10 µM, first compound 0.0316 µM
[32] = second compound 10 µM, first compound 0.1 µM
[33] = second compound 10 µM, first compound 0.316 µM
[34] = second compound 10 µM, first compound 1 µM
[35] = second compound 10 µM, first compound 3.16 µM
[36] = second compound 10 µM, first compound 10 µM
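Further: spheroids exposed to compounds for seven days before read-out.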

## CC1(C)CCC(CN2CCN(c3ccc(C(=O)NS(=O)(=O)c4ccc(NCC5CCOCC5)c([N+](=O)[O-])c4)c(Oc4cnc5[nH]ccc5c4)c3)CC2)=C(c2ccc(Cl)cc2)C1 + CC(Nc1ncnc2nc[nH]c12)c1cc2cccc(Cl)c2c(=O)n1-c1ccccc1
Second compound 0.0316 µM
  IC50: 7.41 µM
Second compound 0.1 µM
  IC50: 6.33 µM
Second compound 0.316 µM
  IC50: 7.43 µM
Second compound 1 µM
  IC50: 7.16 µM
Second compound 3.16 µM
  IC50: 6.61 µM
Second compound 10 µM
  IC50: 4.9 µM
[1]
  viability, T/C: 84.4%
[2]
  viability, T/C: 102%
[3]
  viability, T/C: 101%
[4]
  viability, T/C: 90.2%
[5]
  viability, T/C: 94.7%
[6]
  viability, T/C: 34.3%
[7]
  viability, T/C: 93.8%
[8]
  viability, T/C: 104%
[9]
  viability, T/C: 112%
[10]
  viability, T/C: 98%
[11]
  viability, T/C: 78.8%
[12]
  viability, T/C: 31%
[13]
  viability, T/C: 101%
[14]
  viability, T/C: 93.9%
[15]
  viability, T/C: 104%
[16]
  viability, T/C: 96.3%
[17]
  viability, T/C: 90.5%
[18]
  viability, T/C: 35.8%
[19]
  viability, T/C: 106%
[20]
  viability, T/C: 97.1%
[21]
  viability, T/C: 82.5%
[22]
  viability, T/C: 88.7%
[23]
  viability, T/C: 88.8%
[24]
  viability, T/C: 34.4%
[25]
  viability, T/C: 80.4%
[26]
  viability, T/C: 79.4%
[27]
  viability, T/C: 80.6%
[28]
  viability, T/C: 80.5%
[29]
  viability, T/C: 67.7%
[30]
  viability, T/C: 39.2%
[31]
  viability, T/C: 57.5%
[32]
  viability, T/C: 70.3%
[33]
  viability, T/C: 59.6%
[34]
  viability, T/C: 60.8%
[35]
  viability, T/C: 62%
[36]
  viability, T/C: 31.1%

## C[C@@H](NC(=O)c1ncnc(N)c1Cl)c1ncc(C(=O)Nc2cc(C(F)(F)F)c(Cl)cn2)s1 + CC(Nc1ncnc2nc[nH]c12)c1cc2cccc(Cl)c2c(=O)n1-c1ccccc1
Second compound 0.0316 µM
  IC50: > 10 µM
Second compound 0.1 µM
  IC50: > 10 µM
Second compound 0.316 µM
  IC50: > 10 µM
Second compound 1 µM
  IC50: > 10 µM
Second compound 3.16 µM
  IC50: > 10 µM
Second compound 10 µM
  IC50: > 10 µM
[1]
  viability, T/C: 103%
[2]
  viability, T/C: 98.3%
[3]
  viability, T/C: 101%
[4]
  viability, T/C: 108%
[5]
  viability, T/C: 101%
[6]
  viability, T/C: 97.2%
[7]
  viability, T/C: 113%
[8]
  viability, T/C: 106%
[9]
  viability, T/C: 106%
[10]
  viability, T/C: 101%
[11]
  viability, T/C: 117%
[12]
  viability, T/C: 96.4%
[13]
  viability, T/C: 107%
[14]
  viability, T/C: 101%
[15]
  viability, T/C: 94.3%
[16]
  viability, T/C: 95.4%
[17]
  viability, T/C: 103%
[18]
  viability, T/C: 94.6%
[19]
  viability, T/C: 96.5%
[20]
  viability, T/C: 91.3%
[21]
  viability, T/C: 91.8%
[22]
  viability, T/C: 102%
[23]
  viability, T/C: 94.8%
[24]
  viability, T/C: 86.2%
[25]
  viability, T/C: 87.2%
[26]
  viability, T/C: 79.5%
[27]
  viability, T/C: 86.1%
[28]
  viability, T/C: 94%
[29]
  viability, T/C: 80.1%
[30]
  viability, T/C: 79.8%
[31]
  viability, T/C: 60.9%
[32]
  viability, T/C: 76.9%
[33]
  viability, T/C: 63.1%
[34]
  viability, T/C: 80.7%
[35]
  viability, T/C: 61.7%
[36]
  viability, T/C: 55.1%

## Cn1ncnc1[C@H]1c2n[nH]c(=O)c3cc(F)cc(c23)N[C@@H]1c1ccc(F)cc1 + CC(Nc1ncnc2nc[nH]c12)c1cc2cccc(Cl)c2c(=O)n1-c1ccccc1
Second compound 0.0316 µM
  IC50: > 0.1 µM
Second compound 0.1 µM
  IC50: > 0.1 µM
Second compound 0.316 µM
  IC50: > 0.1 µM
Second compound 1 µM
  IC50: > 0.1 µM
Second compound 3.16 µM
  IC50: > 0.1 µM
Second compound 10 µM
  IC50: > 0.1 µM
Second compound 0.0316 µM, first compound 0.000316 µM
  viability, T/C: 110%
Second compound 0.0316 µM, first compound 0.001 µM
  viability, T/C: 95.1%
Second compound 0.0316 µM, first compound 0.00316 µM
  viability, T/C: 104%
Second compound 0.0316 µM, first compound 0.01 µM
  viability, T/C: 98.8%
[1]
  viability, T/C: 91.7%
[2]
  viability, T/C: 96.7%
Second compound 0.1 µM, first compound 0.000316 µM
  viability, T/C: 100%
Second compound 0.1 µM, first compound 0.001 µM
  viability, T/C: 99.3%
Second compound 0.1 µM, first compound 0.00316 µM
  viability, T/C: 105%
Second compound 0.1 µM, first compound 0.01 µM
  viability, T/C: 99.7%
[7]
  viability, T/C: 101%
[8]
  viability, T/C: 90.1%
Second compound 0.316 µM, first compound 0.000316 µM
  viability, T/C: 99.5%
Second compound 0.316 µM, first compound 0.001 µM
  viability, T/C: 96.8%
Second compound 0.316 µM, first compound 0.00316 µM
  viability, T/C: 110%
Second compound 0.316 µM, first compound 0.01 µM
  viability, T/C: 92.9%
[13]
  viability, T/C: 101%
[14]
  viability, T/C: 91.9%
Second compound 1 µM, first compound 0.000316 µM
  viability, T/C: 104%
Second compound 1 µM, first compound 0.001 µM
  viability, T/C: 90.7%
Second compound 1 µM, first compound 0.00316 µM
  viability, T/C: 90.2%
Second compound 1 µM, first compound 0.01 µM
  viability, T/C: 84%
[19]
  viability, T/C: 101%
[20]
  viability, T/C: 86.9%
Second compound 3.16 µM, first compound 0.000316 µM
  viability, T/C: 87.2%
Second compound 3.16 µM, first compound 0.001 µM
  viability, T/C: 78.5%
Second compound 3.16 µM, first compound 0.00316 µM
  viability, T/C: 79.8%
Second compound 3.16 µM, first compound 0.01 µM
  viability, T/C: 81.5%
[25]
  viability, T/C: 78%
[26]
  viability, T/C: 81.3%
Second compound 10 µM, first compound 0.000316 µM
  viability, T/C: 56.8%
Second compound 10 µM, first compound 0.001 µM
  viability, T/C: 57.8%
Second compound 10 µM, first compound 0.00316 µM
  viability, T/C: 56.9%
Second compound 10 µM, first compound 0.01 µM
  viability, T/C: 61.9%
[31]
  viability, T/C: 58.7%
[32]
  viability, T/C: 58.9%
